Source: patent publication US7618961B2, “Inhibitors of 11-beta-hydroxy steroid dehydrogenase type 1” (Biovitrum AB, priority 2000, dated 2009)

Target: T1, human 11-β-hydroxysteroid dehydrogenase type-1 enzyme (11-β-HSD1) (Homo sapiens, UniProt P28845)
T1 construct: made in house; host or cells: Pichia pastoris
T1 sequence (P28845 whole entry): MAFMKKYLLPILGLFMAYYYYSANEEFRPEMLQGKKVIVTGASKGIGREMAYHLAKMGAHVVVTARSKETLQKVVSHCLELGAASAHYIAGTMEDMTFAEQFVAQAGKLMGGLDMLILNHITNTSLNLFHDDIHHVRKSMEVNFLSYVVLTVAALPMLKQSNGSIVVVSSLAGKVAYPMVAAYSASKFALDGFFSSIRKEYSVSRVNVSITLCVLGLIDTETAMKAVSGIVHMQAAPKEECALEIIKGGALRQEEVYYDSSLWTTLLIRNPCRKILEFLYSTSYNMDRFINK
Test: Scintillation proximity assay: human 11-β-HSD1 enzyme assay
Type: biochemical
Conditions: Ki calculated from IC50 (Cheng Prushoff)
Description: [1, 2(n)-^3H]-cortisone was purchased from Amersham Pharmacia Biotech. Anti-cortisol monoclonal mouse antibody, clone 6D6.7 was obtained from Immunotech and Scintillation proximity assay (SPA) beads coated with monoclonal antimouse antibodies were from Amersham Pharmacia Biotech. NADPH, tetrasodium salt was from Calbiochem and glucose-6-phosphate (G-6-P) was supplied by Sigma. The human 11-β-hydroxysteroid dehydrogenase type-1 enzyme (11-β-HSD1) was expressed in Pichia pastoris. 18-β-glycyrrhetinic acid (GA) was obtained from Sigma. The serial dilutions of the compounds were performed on a Tecan Genesis RSP 150.
Compounds to be tested were dissolved in DMSO (1 mM) and diluted in 50 mM Tris-HCl, pH 7.2 containing 1 mM EDTA.
The multiplication of plates was done on a WallacQuadra. The amount of the product [^3H]-cortisol, bound to the beads was determined in a Packard, Top Count microplate liquid scintillation counter.
The 11-β-HSD1 enzyme assay was carried out in 96 well microtiter plates (Packard, Optiplate) in a total well volume of 220 μL and contained 30 mM Tris-HCl, pH 7.2 with 1 mM EDTA, a substrate mixture tritiated Cortisone/NADPH (175 nM/181 μM), G-6-P (1 mM) and inhibitors in serial dilutions (9 to 0.15 μM). Reactions were initiated by the addition of human 11-β-HSD1, either as Pichia pastoris cell homogenate or microsomes prepared from Pichia pastoris (the final amount of enzyme used was varied between 0.057 to 0.11 mg/mL). Following mixing, the plates were shaken for 30 to 45 minutes at room temperature. The reactions were terminated with 10 μL 1 mM GA stop solution. Monoclonal mouse antibody was then added (10 μL of 4 μM) followed by 100 μL of SPA beads (suspended according to the manufacturers instructions). Appropriate controls were set up by omitting the 11-β-HSD1 to obtain the non-specific binding (NSB) value.
The plates were covered with plastic film and incubated on a shaker for 30 minutes, at room temperature, before counting. The amount of [^3H]-cortisol, bound to the beads was determined in a microplate liquid scintillation counter.
The calculation of the Ki values for the inhibitors was performed by use of Activity Base. The Ki value is calculated from IC50 and the Km value is calculated using the Cheng Prushoff equation (with reversible inhibition that follows the Michaelis-Menten equation): […] [Cheng, Y. C.; Prushoff, W. H. Biochem. Pharmacol. 1973, 22, 3099-3108]. The IC50 is measured experimentally in an assay wherein the decrease of the turnover of cortisone to cortisol is dependent on the inhibition potential of each substance. The Ki values of the compounds of the present invention for the 11-β-HSD1 enzyme lie typically between about 10 nM and about 10 μM. Illustrative of the invention, the following Ki values have been determined in the human 11-β-HSD1 enzyme assay (see Table 1): […]
With `CCOC(=O)Cc1csc(NS(=O)(=O)c2cc(C)c(Cl)cc2Cl)n1` [Example 1A, Ethyl (2-{[(2,4-dichloro-5-methylphenyl)sulfonyl]amino}-1,3-thiazol-4-yl)acetate] the Ki was 32 nM. `O=C(Cc1csc(NS(=O)(=O)c2c(Cl)cc(Cl)cc2Cl)n1)N1CCOCC1` [Example 149A, 2,4,6-Trichloro-N-{4-[2-(4-morpholinyl)-2-oxoethyl]-1,3-thiazol-2-yl}benzenesulfonamide] gave a Ki of 51 nM. Compound `O=C(Cc1csc(NS(=O)(=O)c2ccc(-c3ccccc3)cc2)n1)N1CCOCC1` [Example 151A, N-{4-[2-(4-morpholinyl)-2-oxoethyl]-1,3-thiazol-2-yl}[1,1′-biphenyl]-4-sulfonamide] has a Ki of 21 nM. In the case of `CCCC(=O)Cc1csc(NS(=O)(=O)c2cccc(Cl)c2C)n1` [Example 179A, 3-Chloro-2-methyl-N-[4-(2-oxopentyl)-1,3-thiazol-2-yl]benzenesulfonamide], the Ki is reported as 14 nM. For `Cc1c(Cl)cccc1S(=O)(=O)Nc1nc(CCO)cs1` [Example 181A, 3-Chloro-N-[4-(2-hydroxyethyl)-1,3-thiazol-2-yl]-2-methylbenzenesulfonamide], the Ki was 53 nM. With `Cc1c(Cl)cccc1S(=O)(=O)Nc1nc(CCOc2cccnc2)cs1` [Example 189A, 3-Chloro-2-methyl-N-{4-[2-(3-pyridinyloxy)ethyl]-1,3-thiazol-2-yl}benzenesulfonamide] the Ki was 299 nM. `Cc1c(Cl)cccc1S(=O)(=O)Nc1nc(CCN2CCOCC2)cs1.Cl` [Example 204A, 3-Chloro-2-methyl-N-{4-[2-(4-morpholinyl)ethyl]-1,3thiazol-2-yl}benzenesulfonamide hydrochloride] gave a Ki of 91 nM.

Tested on: not given
Test: not given
Conditions: not given
Compound `CCOCCc1nc(NS(=O)(=O)c2cccc(Cl)c2C)sc1CN(C)C` [Example 190A, 3-Chloro-N-[5-[(dimethylamino)methyl]-4(2-ethoxyethyl)-1,3-thiazol-2-yl]-2-methylbenzenesulfonamide] has a melting point of 152 to 153 °C. `CCC(=O)OCCc1csc(NS(=O)(=O)c2cccc(Cl)c2C)n1` [Example 192B, 2-(2-{[(3-Chloro-2-methylphenyl)sulfonyl]amino}-1,3-thiazol-4-yl)ethyl propionate] showed a melting point of 122 °C. `Cc1c(Cl)cccc1S(=O)(=O)Nc1nc(CCOC(=O)C(C)C)cs1` [Example 193A, 2-(2-{[(3-Chloro-2-methylphenyl)sulfonyl]amino}-1,3-thiazol-4-yl)ethyl 2-methylpropanoate] gave a melting point of 118 °C. `Cc1c(Cl)cccc1S(=O)(=O)Nc1nc(CCOC(=O)N2CCOCC2)cs1` [Example 196A, 2-(2-{[(3-Chloro-2-methylphenyl)sulfonyl]amino}-1,3-thiazol-4-yl)ethyl 4-morpholinecarboxylate] showed a melting point of 161 °C. For `Cc1c(Cl)cccc1S(=O)(=O)Nc1nc(CCN2CCOCC2)cs1.Cl` [Example 204A, 3-Chloro-2-methyl-N-{4-[2-(4-morpholinyl)ethyl]-1,3thiazol-2-yl}benzenesulfonamide hydrochloride], the melting point was 197 to 198 °C.
